Measurements from ChEMBL document CHEMBL1149029, “New cycloartanol sulfates from the alga Tydemania expeditionis: inhibitors of the protein tyrosine kinase pp60v-src” (J Nat Prod, 1994).

Assay: Inhibition of Rous sarcoma virus pp60v-src

Row | IC50 [µM] | Compound
1 | 39 | CC(C)=CC(=O)C[C@@H](C)[C@H]1CC[C@@]2(C)[C@@H]3CC[C@H]4[C@](C)(COS(=O)(=O)O)[C@@H](OS(=O)(=O)O)CC[C@@]45C[C@@]35CC[C@]12C
2 | 32 | CC(C)CC(=O)C[C@@H](C)[C@H]1CC[C@@]2(C)[C@@H]3CC[C@H]4[C@](C)(COS(=O)(=O)O)[C@@H](OS(=O)(=O)O)CC[C@@]45C[C@@]35CC[C@]12C
3 | 100 | CC(C)CC(O)C[C@@H](C)[C@H]1CC[C@@]2(C)[C@@H]3CC[C@H]4[C@](C)(COS(=O)(=O)O)[C@@H](OS(=O)(=O)O)CC[C@@]45C[C@@]35CC[C@]12C (stereo partly drawn)
